Legend:
Bhas 42 cells [1] = assay: Bhas 42 cell transformation test with MCA, hydrogen peroxide method with dye and Giemsa staining; type: cell-based, mouse; details: MCA 0.1, 0.3, 1 μg/mL for 3 days; 0.0015% hydrogen peroxide day 21, alamarBlue or WST-8
Method: A basic experiment was carried out as follows. In a Bhas 42 cell transformation test using a 96-well plate (0.1 mL of medium/well), 0.05 mL of a medium containing hydrogen peroxide (in a concentration 3 times higher than the final concentration) was added on the 21st day after cell inoculation. 1 to 24 hours later, 0.05 mL of a medium containing alamarBlue or WST-8 (0.01 mL of dye+0.04 mL of medium) was added.
Whether or not the transformation of Bhas 42 cells could be quantified with a dye was analyzed using MCA. The cells were inoculated (200 cells/0.05 mL of medium/well), and on the following day, 0.05 mL of a medium containing MCA (0.2, 0.6, and 2 μg/mL: all of which were 2 times higher than the final concentrations that were 0.1, 0.3, and 1 μg/mL, respectively) was added thereto. The cells were treated for 3 days, and a medium containing hydrogen peroxide (0.0045%: 3 times higher than the final concentration that was 0.0015%) was added thereto on the 21st day after cell inoculation. 24 hours later, a dye was added, and measurement was then carried out. Thereafter, 0.02 mL of glutaraldehyde (2.5%: approximately 10 times higher than the final concentration that was 0.25%) was further added, and the resultant cells were then left for 30 minutes or more for fixation. Thereafter, the cells were washed with water and were then subjected to Giemsa staining.

Bhas 42 cells [2] = details: 0.0015% final, 24 hours
Method: In order to observe the morphology of a transformed focus and the morphology of normal cells existing around the transformed focus before and after a treatment with hydrogen peroxide, the following experiment was carried out using 3-methylcholanthrene (MCA) as an initiator. […] Thereafter, 0.2 mL of a medium containing hydrogen peroxide (0.0165%: 11 times higher than the final concentration that was 0.0015%) was added, and the transformed focus was then observed 24 hours after the addition of hydrogen peroxide.

[3] = tested on: Hu-MI cells and human cancer cells (A549, FLC-5, HCT 116, MKN28); details: 0.003% final, 24 hours, day 14
Method: Whether or not human transformed cells can also be selected by treatment with hydrogen peroxide was analyzed. […] An experimental system was prepared, such that a large number of Hu-MI cells and a small number of human cancer cells (A549 cells: lung cancer; FLC-5 cells: liver cancer; HCT 116 cells: colon cancer; and MKN28 cells: stomach cancer) were simultaneously inoculated and such that they were co-cultured.
The Hu-MI cells (10^4 cells/well) and various types of cancer cells (500 cells/well for FLC-5 cells; and 100 cells/well for other cells) were each inoculated on a 6-well plate (2 mL of medium/well). On the 14th day after the inoculation, 0.2 mL of medium containing hydrogen peroxide (0.033%: 11 times higher than the final concentration that was 0.003%) was added thereto, and the cells were then observed 24 hours after the addition of hydrogen peroxide. As a medium, MEM+10% fetal bovine serum was used.

Bhas 42 cells [4] = details: depending on concentration and treatment time (1 to 24 hours)
Method: 1 to 24 hours later, 0.05 mL of a medium containing alamarBlue or WST-8 (0.01 mL of dye+0.04 mL of medium) was added. Three hours after the addition of the aforementioned medium, a fluorescence level (excitation: 530 nm; measurement: 590 nm) or absorbance (450 nm) was measured (FIG. 2).
In order to find conditions under which normal cells are killed but transformed cells survive, an experiment was carried out to obtain an appropriate concentration of hydrogen peroxide and an appropriate treatment time.

mouse lung tumor cells = details: 0.015% final, 24 hours, lung tumor slices
Method: Whether or not the transformed cells can be selected even in vivo was analyzed. The following experiment was carried out using rasH2 mice (human c-Ha-ras gene-introduced mice; female; 6-week-old). N-ethyl-N-nitrosourea used as an initiator was intraperitoneally administered to each mouse (120 mg/kg/10 mL of physiological saline). From 1 week after the administration of N-ethyl-N-nirosourea, butylhydroxytoluene used as a promoter was orally administered once a week, repeatedly for 7 weeks (400 mg/kg/10 mL of corn oil). Thereafter, the mouse was further bred for 2 weeks. […] The medium was left at rest in a CO2 incubator (5% CO2, 37° C.) for 24 hours, and the sample was then stained with a trypan blue solution (prepared by adding 0.002% trypan blue to phosphate buffered saline) for 10 minutes. It is to be noted that trypan blue is not incorporated into living cells but is incorporated into dead cells, and that it stains the cells blue.

Bhas 42 cells [5] = assay: Selection of Bhas 42 transformed cells by BP treatment and light irradiation; type: cell-based, mouse; details: BP 20 ng/mL + light irradiation 2 J/cm^2 (UVA), observed 24 hours later
Method: Whether or not transformed cells can be selected using active oxygens other than hydrogen peroxide was analyzed. Since such active oxygens other than hydrogen peroxide are extremely unstable and have a short life time, they cannot be used as reagents. Accordingly, benzo(a)pyrene (BP) for generating superoxide anion radical as a result of light irradiation was utilized. Transformed foci were induced in Bhas 42 cells (by the method of Example 1), and the medium was then exchanged with a phosphate buffered saline (2 mL/well). […] Using a sunlight simulator, light was applied to the cells (300 to 800 nm; UVA irradiation intensity: 5.6 mW/cm^2; irradiation time: 6 minutes; irradiation dose: 2 J/cm^2), and the medium was then exchanged. Twenty-four hours later, the resultant cells were observed.

With `Cc1ccc2cc3c(ccc4ccccc43)c3c2c1CC3` [MCA, 3-methylcholanthrene] the “transformed foci and fluorescence level or absorbance” value (Bhas 42 cells [1]) was “increased depending on the dosage”.

With `OO` [hydrogen peroxide] the “morphology of normal cells around the transformed focus after addition of hydrogen peroxide” value (Bhas 42 cells [2]; day 21) was “cytoplasm was denatured”, the “morphology of the transformed focus after addition of hydrogen peroxide” value (Bhas 42 cells [2]; day 21, foci induced by 1 μg/mL MCA) was “not changed” and the “fate of Hu-MI cells (considered normal cells)” value [3] was “died and were thereby removed”. For the same compound, the “fate of human cancer cells (A549, FLC-5, HCT 116, MKN28)” value [3] was “remained in the state of colonies and survived”, the “effect on normal cells versus transformed focus wells, absorbance of WST-8 as indicator” value (Bhas 42 cells [4]) was “specifically destroys normal cells” and the “trypan blue staining (dead cells) of tumor and non-tumor portion” value (mouse lung tumor cells) was “only the non-tumor portion was stained blue”.

`c1ccc2c(c1)cc1ccc3cccc4ccc2c1c34` [BP, benzo(a)pyrene] was tested, and the “selection of the transformed cells” value (Bhas 42 cells [5]) was “observed only in the case of a BP treatment+light irradiation group”.

— patent US20100075364A1, “METHOD FOR SELECTING MAMMAL TRANSFORMED CELLS” (FOOD AND DRUG SAFETY CENTER, priority 2008, published 2010)
